From patent US11419921B2, “Methods of treating neurological disorders” (EnClear Therapies, Inc., priority 2018, dated 2022)

Columns and labels:
[1] = system: (GR)10; experiment: Cleavage of (GR)10 by enzymes in solution (PBS with CaCl2 and MgCl2), LC/MS of GR repeats; assay type: biochemical; settings: (GR)10 50 μM
Experimental: • (GR)10 dipeptide (also (GR)8, (GR)6, (GR)4, (GR)2) were synthetized by solid-phase synthesis by CanPeptide; All peptides are uncapped and supplied lyophilized with TFA as counter ions. Purity was always above 95%. • Buffer: PBS buffer containing CaCl2 and MgCl2. • Stock solution of enzyme (e.g., 10 mg/mL) (prepared per manufacturer instructions) in PBS. Activators added as necessary. • Working solution of protein of the desired concentration (e.g., 100 μg/mL) prepared immediately before use by diluting the stock solution (e.g., 5 μL of 10 mg/mL stock solution) in PBS buffer (e.g., in 495 μL of PBS). Exemplary Procedure Using 50 μM Concentrations of (GR)10
25 μL of a 100 μM solution of (GR)10 was added to each well of a 96-well plate. 25 μL of a solution of enzyme (two times the desired final enzyme concentration) was added, and the plates were incubated at room temperature. At the specified time points (5 minutes, 10 minutes, 30 minutes, 60 minutes, and 180 minutes) 2.5 μL of a 10% TFA solution were added to stop the reaction. For the time 0 min well, the TFA was added to the well before addition of the enzyme. After last time point, all samples were further diluted with 150 μL of dilution solution. The quenched reaction mixtures were analyzed by LC/MS to determine the concentration of GR repeats of different lengths.
The chromatography and mass spectrometry conditions utilized are shown in Table 2 and Table 3, respectively.

[2] = system: (GR)10; experiment: (GR)10 digestion by immobilized proteases stored at 4° C. for over 2 months; assay type: biochemical; settings: 200 μM (GR)10 in PBS, 5 or 60 minute treatment, FIGS. 8C, 8D
Experimental: (GR)10 was prepared in water to a stock concentration of 10 mM then diluted to a concentration of 200 μM in PBS with Ca^2+ and Mg^2+. (GR)10 samples were then treated with agarose resins having immobilized trypsin or elastase, PBS alone, or agarose resin alone, for 5 minutes or 60 minutes at room temperature. Resins were prepared by a routine method as commonly used by persons of ordinary skill in the art (e.g., the binding reaction described in the POROS™ 20 AL, EP and OH Perfusion Chromatography Bulk Media for Activated Affinity Chromatography Product Information Sheet, ThermoFisher Scientific, Waltham, Mass., Pub. No. 8-0031-40-0993, Rev. C., (incorporated herein by reference in its entirety)) and stored at 4° C. for over 2 months.
50 μl of treated samples were prepared for LC/MS analysis by adding 2.5 μl of 10% trifluoroacetic acid to each sample and 150 μl of dilution solution (0.5% formic acid in ACN/MeOH [50:50]).

[3] = system: iCell® motor neurons; experiment: Toxicity of (GR)10, untreated or protease-treated, on iCell motor neurons; assay type: cell-based; settings: (GR)10 concentrations of 25, 50 and 100 μM
Experimental: 200 μM of (GR)10 were diluted in human cerebrospinal fluid (CSF) and 400 μL were applied to each immobilized proteases. The reaction was incubated 5 minutes at room temperature with end-to-end mixing. Columns were spun down 1 minute at 1,000 Xg to recover digested GR dipeptides. Columns were washed with 12 resin volumes of PBS. The procedure was repeated with 60 minutes digestion time. 100 μL of each samples were transferred to a clean tube, flash-frozen and subsequently used for LC/MS quantification of GR repeats of different lengths. The remaining 300 μL of each samples were flash-frozen and used to assess neuron toxicity.
300 μL of CSF were applied to each immobilized proteases and incubated 60 minutes at room temperature with end-to-end mixing. Columns were spun down 1 minute at 1,000 Xg to recover treated CSF. Samples were flash-frozen and subsequently used to test neuron toxicity.
This example describes the reduced toxicity of (GR)10 on in vitro neuronal cells by digestion of (GR)10 with proteases.

## Thrombin
[1]; enzyme 2.5 μg/mL, 0 min
  (GR)1 concentration: BLQ
  (GR)2 concentration: BLQ
  (GR)4 concentration: 0.1 µM
  (GR)6 concentration: 0.1 µM
  (GR)8 concentration: 1.1 µM
  (GR)10 concentration: 37.7 µM
[1]; enzyme 2.5 μg/mL, 5 min
  (GR)1 concentration: BLQ
  (GR)2 concentration: BLQ
  (GR)4 concentration: 0.1 µM
  (GR)6 concentration: 0.1 µM
  (GR)8 concentration: 1.5 µM
  (GR)10 concentration: 42.9 µM
[1]; enzyme 2.5 μg/mL, 10 min
  (GR)1 concentration: BLQ
  (GR)2 concentration: BLQ
  (GR)4 concentration: 0.1 µM
  (GR)6 concentration: BLQ
  (GR)8 concentration: 1.4 µM
  (GR)10 concentration: 46.7 µM
[1]; enzyme 2.5 μg/mL, 30 min
  (GR)1 concentration: BLQ
  (GR)2 concentration: 0.1 µM
  (GR)4 concentration: 0.2 µM
  (GR)6 concentration: 0.1 µM
  (GR)8 concentration: 1.3 µM
  (GR)10 concentration: 49.1 µM
[1]; enzyme 2.5 μg/mL, 60 min
  (GR)1 concentration: 0.1 µM
  (GR)2 concentration: 0.2 µM
  (GR)4 concentration: 0.3 µM
  (GR)6 concentration: 0.1 µM
  (GR)8 concentration: 1.1 µM
  (GR)10 concentration: 56.2 µM
[1]; enzyme 2.5 μg/mL, 120 min
  (GR)1 concentration: 0.2 µM
  (GR)2 concentration: 0.2 µM
  (GR)4 concentration: 0.4 µM
  (GR)6 concentration: 0.3 µM
  (GR)8 concentration: BLQ
  (GR)10 concentration: 45.3 µM
[1]; enzyme 10 μg/mL, 0 min
  (GR)1 concentration: BLQ
  (GR)2 concentration: BLQ
  (GR)4 concentration: 0.1 µM
  (GR)6 concentration: BLQ
  (GR)8 concentration: 1.3 µM
  (GR)10 concentration: 52.0 µM
[1]; enzyme 10 μg/mL, 5 min
  (GR)1 concentration: 0.1 µM
  (GR)2 concentration: 0.1 µM
  (GR)4 concentration: 0.2 µM
  (GR)6 concentration: BLQ
  (GR)8 concentration: BLQ
  (GR)10 concentration: 54.8 µM
[1]; enzyme 10 μg/mL, 10 min
  (GR)1 concentration: 0.1 µM
  (GR)2 concentration: 0.1 µM
  (GR)4 concentration: 0.2 µM
  (GR)6 concentration: 0.1 µM
  (GR)8 concentration: 1.0 µM
  (GR)10 concentration: 59.4 µM
[1]; enzyme 10 μg/mL, 30 min
  (GR)1 concentration: 0.3 µM
  (GR)2 concentration: 0.4 µM
  (GR)4 concentration: 0.4 µM
  (GR)6 concentration: 0.4 µM
  (GR)8 concentration: 1.3 µM
  (GR)10 concentration: 48.6 µM
[1]; enzyme 10 μg/mL, 60 min
  (GR)1 concentration: 0.5 µM
  (GR)2 concentration: 0.6 µM
  (GR)4 concentration: 0.8 µM
  (GR)6 concentration: 0.5 µM
  (GR)8 concentration: 2.4 µM
  (GR)10 concentration: 55.2 µM
[1]; enzyme 10 μg/mL, 120 min
  (GR)1 concentration: 1.1 µM
  (GR)2 concentration: 1.4 µM
  (GR)4 concentration: 1.6 µM
  (GR)6 concentration: 1.3 µM
  (GR)8 concentration: 3.0 µM
  (GR)10 concentration: 48.7 µM

## agarose resin having immobilized elastase: elastase immobilized in-house on agarose resin
[2]
  (GR)10 proteolytic activity after storage at 4° C. for over 2 months: did not exhibit substantial (GR)10 proteolytic activity
[3]
  Effect of protease treatment of (GR)10 on (GR)10 toxicity: abrogation of (GR)10 toxicity
